Patent publication US9957264B2 (Merck Sharp & Dohme Corp., priority 2013, dated 2018)

Experiments:
[1] = target: JAK1 (recombinant purified GST-tagged catalytic domain) (Homo sapiens (Human), UniProt P23458); test: Jak Biochemical HTRF Assay (JAK1); details: [ATP] 31.8 μM
Summary of the method: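 Compounds in DMSO were pre-equilibrated with enzyme and biotinylated peptide, then ATP was added and the reaction proceeded 120 min at room temperature. EDTA-based stop buffer with detection reagents was added, and after 60 min the time-resolved FRET ratio was read. IC50s came from 4-parameter dose–response fits.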

[2] = target: JAK2 (recombinant purified GST-tagged catalytic domain) (Homo sapiens (Human), UniProt O60674); test: Jak Biochemical HTRF Assay (JAK2); details: [ATP] 8.5 μM
JAK2 (recombinant purified GST-tagged catalytic domain), sequence (O60674 849-1124): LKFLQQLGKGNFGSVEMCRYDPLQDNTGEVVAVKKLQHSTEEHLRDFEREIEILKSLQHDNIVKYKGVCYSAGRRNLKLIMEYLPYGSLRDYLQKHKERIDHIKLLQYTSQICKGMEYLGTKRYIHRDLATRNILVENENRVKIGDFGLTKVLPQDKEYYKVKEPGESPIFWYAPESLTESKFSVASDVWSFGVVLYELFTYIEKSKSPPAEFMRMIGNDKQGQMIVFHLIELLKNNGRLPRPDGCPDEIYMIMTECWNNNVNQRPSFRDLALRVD

JAK1 (recombinant purified GST-tagged catalytic domain), sequence (P23458 875-1153): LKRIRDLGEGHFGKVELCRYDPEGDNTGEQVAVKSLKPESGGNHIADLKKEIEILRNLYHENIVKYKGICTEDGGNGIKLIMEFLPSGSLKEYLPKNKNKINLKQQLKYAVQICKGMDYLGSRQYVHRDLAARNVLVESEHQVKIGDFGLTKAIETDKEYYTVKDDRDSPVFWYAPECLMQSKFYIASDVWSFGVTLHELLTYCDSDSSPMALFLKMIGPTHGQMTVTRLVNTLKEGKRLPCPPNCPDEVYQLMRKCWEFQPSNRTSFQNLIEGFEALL

| SMILES | IC50 [1] [nM] | IC50 [2] [nM] |
| --- | --- | --- |
| N#CCC1(n2nc(Nc3ccc(S(=O)(=O)C(F)F)cc3)c3c(=O)[nH]ccc32)CCN(c2ccc(C#N)cn2)CC1 [Example 15-3, 6-(4-(cyanomethyl)-4-(3-((4((difluoromethyl)sulfonyl)phenyl)amino)-4-oxo-4,5-dihydro-1H-pyrazolo[4,3-c]pyridin-1-yl)piperidin-1-yl)nicotinonitrile] | 0.25 | 0.26 |
| CS(=O)(=O)c1ccc(Nc2nn(C3(CC#N)CCN(c4ccc(C(F)(F)F)cn4)CC3)c3cc[nH]c(=O)c23)cc1 [Example 15-4, 2-(4-(3-((4-(methylsulfonyl)phenyl)amino)-4-oxo-4,5-dihydro-1H-pyrazolo[4,3-c]pyridin-1-yl)-1-(5 (trifluoromethyl)pyridin-2-yl)piperidin-4-yl)acetonitrile] | 0.2 | 0.55 |
| Cc1cc(Nc2nn(C3(CC#N)CCN(c4ccc(C#N)cn4)CC3)c3cc[nH]c(=O)c23)ccc1C(=O)N1CCSCC1 [Example 15-5, 6-(4-(cyanomethyl)-4-(3-((3-methyl-4-(thiomorpholine-4-carbonyl)phenyl)amino)-4-oxo-4,5-dihydro-1H-pyrazolo[4,3-c]pyridin-1-yl)piperidin-1-yl)nicotinonitrile] | 0.15 | 0.17 |
| CS(=O)(=O)c1ccc(Nc2nn(C3(CC#N)CCN(c4ccc(Br)cn4)CC3)c3cc[nH]c(=O)c23)cc1 [Example 15-8, 2-(1-(5-bromopyridin-2-yl)-4-(3-((4-(methylsulfonyl)phenyl)amino)-4-oxo-4,5-dihydro-1H-pyrazolo[4,3-c]pyridin-1-yl)piperidin-4-yl)acetonitrile] | 0.09 | 0.41 |
| Cc1cc(Nc2nn(C3(CC#N)CCN(c4cc(C(F)(F)F)ccn4)CC3)c3cc[nH]c(=O)c23)ccc1C(=O)N1CCSCC1 [Example 16-1, 2-(4-(3-(3-methyl-4-(thiomorpholine-4-carbonyl)phenylamino)-4-oxo-4,5-dihydropyrazolo[4,3-c]pyridin-1-yl)-1-(4-(trifluoromethyl)pyridin-2-yl)piperidin-4-yl)acetonitrile] | 2.77 | 3.06 |
| Cc1cc(Nc2nn(C3(CC#N)CCN(c4cc(C(F)(F)F)ccn4)CC3)c3cc[nH]c(=O)c23)ccc1C(=O)N1CCC(F)(F)CC1 [Example 16-4, 2-(4-(3-(4-(4,4-difluoropiperidine-1-carbonyl)-3-methylphenylamino)-4-oxo-4,5-dihydropyrazolo[4,3-c]pyridin-1-yl)-1-(4-(trifluoromethyl)pyridin-2-yl)piperidin-4-yl)acetonitrile] | 2.01 | 2.01 |
| CC(F)(F)C(=O)N1CCC(CC#N)(n2nc(Nc3ccc(S(C)(=O)=O)cc3)c3c(=O)[nH]ccc32)CC1 [Example 17, 2-(1-(2,2-difluoropropanoyl)-4-(3-((4-(methylsulfonyl)phenyl)amino)-4-oxo-4,5-dihydro-1H-pyrazolo[4,3-c]pyridin-1-yl)piperidin-4-yl)acetonitrile] | 0.1 | 0.24 |

Continued, values first:

| IC50 [1] [nM] | IC50 [2] [nM] | SMILES |
| --- | --- | --- |
| 41.1 | 1290 | N#CC[C@]1(n2nc(Nc3ccc(C(F)(F)F)cc3)c3c(=O)[nH]ccc32)CC[C@@H](Nc2ccccc2)CC1 [Example 18-3, Cis 2-(1-(4-oxo-3-((4-(trifluoromethyl)phenyl)amino)-4,5-dihydro-1H-pyrazolo[4,3-c]pyridin-1-yl)-4-(phenylamino)cyclohexyl)acetonitrile] |
| 6.33 | 102 | N#CC[C@]1(n2nc(Nc3ccc(C(F)(F)F)cc3)c3c(=O)[nH]ccc32)CC[C@H](Nc2ccccc2)CC1 [Example 18-4, Trans 2-(1-(4-oxo-3-((4-(trifluoromethyl)phenyl)amino)-4,5-dihydro-1H-pyrazolo[4,3-c]pyridin-1-yl)-4-(phenylamino)cyclohexyl)acetonitrile] |
| 4.14 | 84.6 | N#CCC1(n2nc(Nc3ccc(C(F)(F)F)cc3)c3c(=O)[nH]ccc32)CCC(O)CC1 (stereo not drawn) [Example 18-5, (cis and trans) 2-(4-hydroxy-1-(4-oxo-3-((4-(trifluoromethyl)phenyl)amino)-4,5-dihydro-1H-pyrazolo[4,3-c]pyridin-1-yl)cyclohexyl)acetonitrile] |
| 0.09 | 1.75 | N#CC[C@]1(n2nc(Nc3ccc(Cl)cc3)c3c(=O)[nH]ccc32)CC[C@H](N2CC(F)C2)CC1 [Example 18-6, Trans 2-(1-(3-((4-chlorophenyl)amino)-4-oxo-4,5-dihydro-1H-pyrazolo[4,3-c]pyridin-1-yl)-4-(3-fluoroazetidin-1-yl)cyclohexyl)acetonitrile] |
| 2.98 | 19.8 | N#CC[C@]1(n2nc(Nc3ccc(Cl)cc3)c3c(=O)[nH]ccc32)CC[C@@H](N2CC(F)C2)CC1 [Example 18-7, Cis 2-(1-(3-((4-chlorophenyl)amino)-4-oxo-4,5-dihydro-1H-pyrazolo[4,3-c]pyridin-1-yl)-4-(3-fluoroazetidin-1-yl)cyclohexyl)acetonitrile] |
| 0.03 | 2.53 | COC1CN([C@H]2CC[C@](CC#N)(n3nc(Nc4ccc(Cl)cc4)c4c(=O)[nH]ccc43)CC2)C1 [Example 18-8, Trans 2-(1-(3-((4-chlorophenyl)amino)-4-oxo-4,5-dihydro-1H-pyrazolo[4,3-c]pyridin-1-yl)-4-(3-methoxyazetidin-1-yl)cyclohexyl)acetonitrile] |
| 1.14 | 102 | COC1CN([C@H]2CC[C@@](CC#N)(n3nc(Nc4ccc(Cl)cc4)c4c(=O)[nH]ccc43)CC2)C1 [Example 18-9, Cis 2-(1-(3-((4-chlorophenyl)amino)-4-oxo-4,5-dihydro-1H-pyrazolo[4,3-c]pyridin-1-yl)-4-(3-methoxyazetidin-1-yl)cyclohexyl)acetonitrile] |
| 74 | 1020 | N#CC[C@]1(n2nc(Nc3ccc(Cl)cc3)c3c(=O)[nH]ccc32)CC[C@@H](NCC(F)(F)F)CC1 [Example 18-10, Cis 2-(1-(3-((4-chlorophenyl)amino)-4-oxo-4,5-dihydro-1H-pyrazolo[4,3-c]pyridin-1-yl)-4-((2,2,2-trifluoroethyl)amino)cyclohexyl)acetonitrile] |
| 0.22 | 2.2 | N#CC[C@]1(n2nc(Nc3ccc(Cl)cc3)c3c(=O)[nH]ccc32)CC[C@H](NCC(F)(F)F)CC1 [Example 18-11, Trans 2-(1-(3-((4-chlorophenyl)amino)-4-oxo-4,5-dihydro-1H-pyrazolo[4,3-c]pyridin-1-yl)-4-((2,2,2-trifluoroethyl)amino)cyclohexyl)acetonitrile] |
| 5.41 | 38.5 | N#CCC1(n2nc(Nc3ccc(Cl)cc3)c3c(=O)[nH]ccc32)CCC(O)CC1 (stereo not drawn) [Example 18-12, Cis and trans 2-(1-(3-((4-chlorophenyl)amino)-4-oxo-4,5-dihydro-1H-pyrazolo[4,3-c]pyridin-1-yl)-4-hydroxycyclohexyl)acetonitrile] |
| 65 | > 1500 | N#CC[C@]1(n2nc(Nc3ccc(Cl)cc3)c3c(=O)[nH]ccc32)CC[C@@H](Nc2ccccc2)CC1 [Example 18-13, Cis 2-(1-(3-((4-chlorophenyl)amino)-4-oxo-4,5-dihydro-1H-pyrazolo[4,3-c]pyridin-1-yl)-4-(phenylamino)cyclohexyl)acetonitrile] |
